# According to patent US6984639B2, “Heterocyclic ketone and thioester compounds and uses” (GPI NIL Holdings, Inc., priority 1996, dated 2006):
# Read-outs that look alike come from different tables or passages of the source.
# Tests used:
# [1] = test system: MPTP lesioning of dopaminergic neurons in mice; assay: MPTP Model of Parkinson's Disease; assay type: in vivo; conditions: test compound 4 mg/kg s.c.; MPTP 30 mg/kg i.p. for 5 days; CD1 mice; striatum, 18 days following MPTP
# Experimental: MPTP lesioning of dopaminergic neurons in mice was used as an animal model of Parkinson's Disease. Four week old male CD1 white mice were dosed i.p. with 30 mg/kg of MPTP for 5 days. Test compounds (4 mg/kg), or vehicle, were administered s.c. along with the MPTP for 5 days, as well as for an additional 5 days following cessation of MPTP treatment. At 18 days following MPTP treatment, the animals were sacrificed and the striata were dissected and homogenized. Immunostaining was performed on saggital and coronal brain sections using anti-tyrosine hydroxylase […] to quantitate survival and recovery of dopaminergic neurons.
# The results of these experiments are presented in TABLE IV under the column “% TH recovery”.
# [2] = test system: cultured chick sensory neurons from dorsal root ganglia; assay: Chick Dorsal Root Ganglion Cultures and Neurite Outgrowth; assay type: cell-based; conditions: for EC50: neurite outgrowth, 48 hours after drug treatment, from dose-response curves, read-out: ED50 (the source's name)
# Experimental: Dorsal root ganglia were dissected from chick embryos of ten day gestation. Whole ganglion explants were cultured on thin layer Matrigel-coated 12 well plates with Liebovitz L15 plus high glucose media supplemented with 2 mM glutamine and 10% fetal calf serum, and also containing 10 μm cytosine β-D arabinofuranoside (Ara C) at 37° C. in an environment containing 5% CO2. Twenty-four hours later, the DRGs were treated with various concentrations of nerve growth factor, immunophilin ligands or combinations of NFG plus drugs. Forty-eight hours after drug treatment, the ganglia were visualized under phase contrast or Hoffman Modulation contrast with a Zeiss Axiovert inverted microscope. Photomicrographs of the explants were made, and neurite outgrowth was quantitated. Neurites longer than the ORG diameter were counted as positive, with total number of neurites quantitated per each experimental condition. Three to four DRGs are cultured per well, and each treatment was performed in duplicate.
# Dose-response curves were generated from which ED50 values were obtained.
Compound,% TH recovery [1],EC50 [2],further results
"2,2-Diphenylethyl (2S)-1-(3,3-dimethyl-2-oxopentanoyl)-2-pyrrolidinecarbothioate [Compound 44]",28%,–,–
"2-Phenyl-1-ethyl 1-(2-phenyl-1,2-dioxoethyl)-2-piperidinecarbothioate [Compound 14]",48%,0.9 nM,–
"2-Phenyl-1-ethyl 1-(3,3-dimethyl-1,2-dioxopentyl)-2-piperidinecarbothioate [Compound 10]",54%,0.8 nM,neurite outgrowth in sensory neurons (photomicrograph) ([2]; 10 pM): promoting neurite outgrowth; neurite outgrowth in sensory neurons (photomicrograph) ([2]; 1 nM): promoting neurite outgrowth; neurite outgrowth in sensory neurons (photomicrograph) ([2]; 100 nM): promoting neurite outgrowth
"2-Phenyl-1-ethyl (2S)-1-(2-cyclohexyl-1,2-dioxoethyl)-2-pyrrolidinecarbothioate [Compound 12]",–,0.025 nM,–
"2-Phenyl-1-ethyl (2S)-1-(3,3-dimethyl-1,2-dioxopentyl)-2-pyrrolidinecarbothioate [Compound 9]",61%,0.5 nM,–
"3,3-Diphenyl-1-propyl (2S)-1-(3,3-dimethyl-1,2-dioxopentyl)-2-pyrrolidinecarbothioate [Compound 32]",56%,–,–
"3,3-Diphenylpropyl 1-(3,3-dimethyl-2-oxopentanoyl)-2-piperidinecarbothioate [Compound 46]",62%,–,–
"3-(1-Naphthyl)-1-propyl 1-(3,3-dimethyl-1,2-dioxopentyl)piperidine-2-carbothioate [Compound 40]",25%,–,–
"3-(1-Naphthyl)-1-propyl (2S)-1-(3,3-dimethyl-2-oxopentanoyl)-2-pyrrolidinecarbothioate [Compound 43]",50%,–,–
"3-(para-Methoxyphenyl)-1-propyl (2S)-1-(3,3-dimethyl-1,2-dioxopentyl)-2-pyrrolidinecarbothioate [Compound 34]",37.32%,0.011 nM,–
"3-Phenyl-1-propyl (2S)-1-(2-cyclohexyl-1,2-dioxoethyl)-2-pyrrolidinecarbothioate [Compound 28]",52%,–,–
"4-Phenyl-1-butyl (2S)-1-(3,3-dimethyl-1,2-dioxopentyl)-2-pyrrolidinecarbothioate [Compound 30]",48%,0.9 nM,–
"CCC(C)(C)C(=O)C(=O)N1CCC[C@H]1C(=O)CCCCc1ccccc1 [Compound 1, (2S)-3,3-dimethyl-1-[2-(5-phenylpentanoyl)pyrrolidinyl]pentane-1,2-dione]",23%,0.4 nM,neurite outgrowth in sensory neurons (photomicrograph) ([2]; 10 pM): promoting neurite outgrowth; neurite outgrowth in sensory neurons (photomicrograph) ([2]; 1 nM): promoting neurite outgrowth; neurite outgrowth in sensory neurons (photomicrograph) ([2]; 1 μM): promoting neurite outgrowth
CCC(C)(C)C(=O)C(=O)N1CCCC1C(=O)SCc1csc2ccccc12 (stereo not shown) [Compound 11],53%,0.36 nM,–
"O=C(C(=O)N1CCC[C@H]1C(=O)CCCCc1ccccc1)C1CCCCC1 [Compound 62, (2S)-2-(1-Oxo-5-phenyl)pentyl-1-(2-Cyclohexyl-1,2-dioxoethyl)pyrrolidine]",38%,–,"EC50 ([2]; Gallus gallus, Neuron): 5 nM"
CC(C)(C)C(=O)C(=O)N1CCCCC1C(=O)C(CCc1ccccc1)CCc1ccccc1 (stereo not shown) [Compound 65],23%,–,–
"CCC(C)(C)C(=O)C(=O)N1CCC[C@H]1C(=O)CCCC(c1ccc(F)cc1)c1ccc(F)cc1 [Compound 66, (2S)-2-[5,5-di(4-Fluorophenyl)pentanoyl]-1-(3,3 dimethyl-1,2-pentanedione)pyrrolidine]",25%,–,–
